Test results taken from PMC11944851, “Computationally Guided Design, Synthesis, and Evaluation of Novel Non-Hydroxamic Histone Deacetylase Inhibitors, Based on N-Trifluoroacetamide as a Zinc-Binding Group, Against Breast Cancer” (Pharmaceuticals, 2025).
Like-named read-outs stand apart in the source and are kept apart here.

Assays:
[1] = system: HDACs in nuclear extract of HeLa cells; test: HDAC inhibitory activity, fluorescence assay in HeLa nuclear extract; type: biochemical
Description: In this in vitro assay, residual HDAC activity was measured in a nuclear extract of HeLa cells after incubation with the different compounds at 5 µM, followed by single endpoint fluorescence measurement.
To obtain nuclear extracts, HeLa cell cultures were used. The HeLa cell line was cultured in high-glucose DMEM medium with phenol red, supplemented with 8% fetal bovine serum (Gibco, Waltham, MA, USA), 1% Penicillin/Streptomycin (10,000 U/mL, Gibco, Waltham, MA, USA), and 1% non-essential amino acids (Gibco, Waltham, MA, USA). Cells were maintained in an incubator at 37 °C and 5% CO2 atmosphere. To obtain the required number of cells for nuclear extraction, two 150 cm^2 flasks were cultured, resulting in approximately 2 × 10^7 cells. The cells were trypsinized with a 10% V/V trypsin solution (Gibco, Waltham, MA, USA) and subsequently centrifuged at 3000 rpm for 10 min for counting with trypan blue using an automatic counter (Mart-Counter 3000, Corning, NY, USA). Solutions for nuclear material extraction were prepared following the protocol of the commercial kit Abcam Ab156064 (ABCAM, Milpitas, CA, USA). For the lysis buffer (solution A), 10 mL was prepared with Tris-HCl (10 mM) pH 7.5, NaCl (10 mM), MgCl2 (15 mM), sucrose (250 mM), EGTA (0.1 mM), and NP-40 (0.5%). For the sucrose buffer (solution B), 15 mL was prepared with Tris-HCl (10 mM) pH 7.5, NaCl (10 mM), MgCl2 (3 mM), and sucrose (30%). For the extraction buffer (solution C), 10 mL was prepared with NaCl (420 mM), EGTA (0.1 mM), HEPES-KOH (50 mM, pH 7.5), EDTA Na₂ (0.5 mM), and glycerol (10%). For every 1 × 10^7 of cells, 1 mL of solution A (lysis buffer) was added and vortexed for 10 s, followed by a 15 min rest in an ice bath. Then, 4 mL of solution B (sucrose buffer) was added, and the mixture was centrifuged at 1300× g for 10 min at 4 °C. The supernatant was discarded, and the nuclear pellet was washed with a solution of NaCl (10 mM) and Tris-HCl (10 mM) at pH 7.5. The nuclear pellet was then resuspended in 100 µL of solution C (extraction buffer), sonicated for 30 s, and placed in an ice bath for 30 min. The nuclear solution was centrifuged at 20,000× g for 10 min and the supernatant, containing the nuclear extract, was collected. The nuclear extracts were stored at −80 °C. The Lowry colorimetric assay was used to standardize the protein concentration of the obtained nuclear extracts. A sample of the nuclear extract and a sample of bovine serum albumin as a control were each added to 1 mL of Lowry reagent (sodium tartrate 0.1 M, sodium bicarbonate 0.1 M, CuSO4 0.01 M, and 50% Folin reagent).
Prior to the experiment, a calibration curve was performed to ensure linearity.
Reactions were prepared in a 96-well plate following the specified volumes and conditions. Initially, the appropriate volume of deionized water (ddH2O) and 10 μL of buffer were added to each well. Subsequently, 5 μL of either acetylated or deacetylated substrate was added, depending on the experimental group.
Inhibition controls included Trichostatin A (TSA) at 1 mM, with 2 μL added to achieve a final concentration of 20 μM. The reaction was initiated by adding 4 μL of HeLa nuclear extract to each well, except for the developer control wells. The plate was incubated at 37 °C for 30 min, followed by the addition of 10 μL of developer solution. After a second incubation at 37 °C for another 30 min, fluorescence was measured using a plate reader with an excitation/emission of 350–380 nm/440–460 nm.
Remaining HDAC activity was estimated using the calibration curve, where the fluorescence units (AFU) obtained for each condition were converted into deacetylated substrate concentration (μM).

MDA-MB-231 cells = test: MTT cell viability, MDA-MB-231; type: cell-based; conditions: for IC50: MTT, read-out: Cytotoxic Activity IC50 MDA-MB-231; for Cytotoxic activity, initial viability experiment: MDA-MB-231, 72 h of treatment; for Selectivity Index MCF-10A/ MDA-MB-231: ratio of IC50
Description: (§1) The BC cell lines MCF-7 and MDA-MB-231 were cultured in high-glucose DMEM medium with phenol red, supplemented with 7% and 10% fetal bovine serum (Gibco, Waltham, MA, USA), respectively, 1% Penicillin/Streptomycin (10,000 U/mL, Gibco, Waltham, MA, USA), and 1% non-essential amino acids (Gibco, Waltham, MA, USA). Cell cultures were maintained in a temperature-controlled incubator at 37 °C and 5% CO2 atmosphere. For the 72 h assays with MDA-MB-231, 1.8 x 10³ cells/well were seeded in 100 µL of medium.
(§2) The 3-(4,5-dimethylthiazol-2-yl)-2,5-diphenyl tetrazolium bromide assay was used to evaluate the effect of the designed compounds on cell viability. These compounds were initially dissolved in DMSO (dimethyl sulfoxide) as stock solutions at 150 mM. Cells were seeded in 96-well plates (NEST Biotechnology Co., Wuxi, China) at different densities, depending on the cell line used and the incubation time with the treatments, and left in 100 µL of the corresponding culture medium for 24 h to allow for adhesion. Then, the cells were treated with different concentrations of each compound, maintaining a maximum of 0.46% DMSO. After 48 or 72 h of treatment, 20 µL of MTT (5 mg/mL) in phosphate-buffered saline (PBS; Sigma) solution was added to each well and incubated again for 3 h. Subsequently, the blue formazan compound derived from the MTT was dissolved in 100 µL of DMSO. The optical density of the wells was measured at 550 nm using an ELISA reader (MultiSkan, Thermo Scientific, Waltham, MA, USA). Finally, cell viability was expressed as a percentage relative to the negative control (untreated and 0.46% DMSO).
(§3) Cytotoxicity data were analyzed using one-way ANOVA to evaluate differences between the treated groups and the negative control (DMSO). Multiple comparisons with the negative control were performed using Dunnett’s post hoc test. Statistical analysis was performed using GraphPad Prism 10 software (free trial, https://www.graphpad.com/demos/, accessed on 26 June 2024). For the calculation of the IC50s of the compounds, cytotoxicity responses were fitted to a variable slope sigmoidal equation (log(inhibitor) vs. normalized response). A p < 0.05 value was considered statistically significant.

MCF-7 cells = test: MTT cell viability, MCF-7; type: cell-based; conditions: for IC50: MTT, read-out: Cytotoxic Activity IC50 MCF-7; for Selectivity Index MCF-10A/ MCF-7: ratio of IC50
Description: as §1, §2, §3

[2] = MTT cell viability, non-tumorigenic MCF-10A; type: cell-based; conditions: human, MCF-10A non-cancerous mammary epithelial cells, MTT, non-tumorigenic breast cells, read-out: Cytotoxic Activity IC50 MCF-10A
Description: (§4) For the culture of normal breast epithelial cells MCF-10A, DMEM-F12 medium without phenol red was used, supplemented with 5% fetal bovine serum (Gibco, Waltham, MA, USA), 1% Penicillin/Streptomycin (10,000 U/mL, Gibco, Waltham, MA, USA), 1% non-essential amino acids (Gibco, Waltham, MA, USA), 0.33% hydrocortisone, 0.2% insulin (100 U/mL), and 0.002% EGF (1 µg/µL). For the assays with MCF-10A cells, 2.5 × 10^3 cells/well were seeded in 100 µL of medium.
as §2, §3

MCF-10A cells = test: MTT cell viability, non-tumorigenic MCF-10A; type: cell-based; conditions: 72 h
Description: as §4, §2, §3

[3] = 5 µM, single endpoint fluorescence
[4] = Homo sapiens, MDA-MB-231, 72 h, 72 h

Molecule | Effect on HDAC activity [1, 3] | IC50 (MDA-MB-231 cells; [4]) [µM] | Cytotoxic activity, initial viability experiment (MDA-MB-231 cells) | Selectivity Index MCF-10A/ MDA-MB-231 (MDA-MB-231 cells) | IC50 (MCF-7 cells; Homo sapiens, MCF7, 72 h, 72 h) [µM] | Selectivity Index MCF-10A/ MCF-7 (MCF-7 cells) | other results
CC(=O)NCCCCCC(=O)Nc1ccccc1O [5a, 6-Acetamido-N-(2-hydroxyphenyl) Hexanamide] | slight decrease in HDACs activity | – | – | – | – | – | –
CC(=O)NCCCCCC(=O)Nc1ccc(O)cc1 [5b, 6-Acetamido-N-(4-hydroxyphenyl) Hexanamide] | – | 121 ± 26.7 | significant cytotoxic activity | 1.39 | 230 | 0.74 | IC50 (MCF-7 cells; 72 h): 228 ± 52.9 µM; IC50 at 72 h [2]: 169 ± 20.6 µM
O=C(CCCCCNC(=O)C(F)(F)F)Nc1ccccc1O [6a, N-(2-hydroxyphenyl)-6-(2,2,2-trifluoroacetamido) Hexanamide] | slight decrease in HDACs activity | 226 | significant cytotoxic activity | >2.66 | 254 ± 34.4 | >2.36 | IC50 (MDA-MB-231 cells; 72 h): 225 ± 17.6 µM; fold less toxic than SAHA in MCF-10A cells (MCF-10A cells): ≈ 200 fold
O=C(CCCCCNC(=O)C(F)(F)F)Nc1ccc(O)cc1 [6b, N-(4-hydroxyphenyl)-6-(2,2,2-trifluoroacetamido) Hexanamide] | – | 76.7 | significant cytotoxic activity | 2.01 | 45.7 ± 6.91 | 3.38 | fold more potent than 5b in triple-negative breast cancer cells (MDA-MB-231 cells; 72 h): 1.5 fold; IC50 (MDA-MB-231 cells; 72 h): 76.7 ± 8.52 µM; fold more active than 5b in ER-positive cells (MCF-7 cells; 72 h): 5 fold; IC50 at 72 h [2]: 155 ± 21.6 µM; fold less toxic than SAHA in MCF-10A cells (MCF-10A cells): more than 50 fold
O=C(CCCCCCC(=O)Nc1ccccc1)NO [SAHA, suberoylanilide hydroxamic acid, reference compound] | reduced HDAC activity almost completely | – | – | – | – | – | –
CC(=O)NCCCCCC(=O)O [compound 2, 6-Acetamidohexanoic Acid] | slight decrease in HDACs activity | – | – | – | – | – | –
O=C(O)CCCCCNC(=O)C(F)(F)F [compound 3, 6-(2,2,2-trifluoroacetamido) Hexanoic Acid] | slight decrease in HDACs activity | – | – | – | – | – | –
Trichostatin A [TSA, reference compound] | – | – | – | – | – | – | Effect on HDAC activity ([1]; TSA 20 µM): reduced HDAC activity almost completely
